What was measured:
[1] = Cytotoxicity against African green monkey BGM cells assessed as cell viability after 24 hrs by neutral red assay; type: cell-based; settings: chlorocebus aethiops, read-out: MLD50
in vitro = settings: monkey
Plasmodium falciparum [2] = assay: microbe, parasite or virus in culture; settings: W2, 48 h
Plasmodium falciparum [3] = assay: Antimalarial activity against chloroquine-sensitive Plasmodium falciparum NF54 infected in human erythrocytes incubated for 48 hrs by [3H]hypoxanthine incorporation assay; type: functional, organism-based
Plasmodium falciparum [4] = assay: Potency index, ratio of primaquine IC50 to compound IC50 for chloroquine-resistant Plasmodium falciparum W2 infected in human red blood cells; type: functional

Structure (SMILES)	CC50 at 24 h [1] [µM]	selectivity ratio (in vitro)	IC50 (Plasmodium falciparum [2]) [µM]	IC50 (Plasmodium falciparum [3]) [µM]	Ratio IC50 (Plasmodium falciparum [4])
CCCCn1c(-c2ccc(F)cc2)c(-c2ccccc2)c(C(=O)Nc2ccccc2)c1C(C)C	> 2200	> 345	6.39	–	–
C[C@@H]1CC[C@H]2[C@@H](C)C(c3cccn3C)O[C@@H]3O[C@@]4(C)CC[C@@H]1[C@]32OO4 (some centres undefined)	–	–	–	0.0046	–
CC(C)c1c(C(=O)Nc2ccccc2)c(-c2ccccc2)c(-c2ccc(F)cc2)n1CCCNc1ccnc2cc(Cl)ccc12	136	210	0.65	–	5
COc1cc(NC(C)CCCn2c(-c3ccc(F)cc3)c(-c3ccccc3)c(C(=O)Nc3ccccc3)c2C(C)C)c2ncccc2c1 (centres undefined)	> 1560	> 1110	1.41	–	5
COc1cc(NC(C)CCCN)c2ncccc2c1 (centres undefined) [PRIMAQUINE]	452	239	1.89	–	–
CC(C)c1c(C(=O)Nc2ccccc2)c(-c2ccccc2)c(-c2ccc(F)cc2)n1CCCCNc1ccnc2cc(Cl)ccc12	187	468	0.4	–	5
CC(C)c1c(C(=O)Nc2ccccc2)c(-c2ccccc2)c(-c2ccc(F)cc2)n1CCNc1ccnc2cc(Cl)ccc12	> 1660	> 1680	0.99	–	5
CC(C)c1c(C(=O)Nc2ccccc2)c(-c2ccccc2)c(-c2ccc(F)cc2)n1CC[C@@H](O)C[C@@H](O)CC(=O)O [ATORVASTATIN]	–	–	10.3	–	–
